Measurements as given in ChEMBL document CHEMBL3779887, “Robenidine Analogues as Gram-Positive Antibacterial Agents” (J Med Chem, 2016).
Converted amounts (≈) assume the structure as drawn. The source made the active and inactive calls. The calls are words filed in the database; no cut-off is given here.

Experiments:
[1] = Lipophilicity, logD of the compound at pH 7.4; assay type: physicochemical; settings: buffer
[2] = system: Staphylococcus aureus; assay: Bactericidal activity against […] Staphylococcus aureus clinical isolate USA300 assessed as log reduction in bacterial cell number at MIC after 24 hrs by time-kill curve analysis; assay type: functional, organism-based
[3] = system: Staphylococcus aureus; assay: Antibacterial activity against methicillin-sensitive Staphylococcus aureus ATCC 6538 after 20 to 24 hrs; assay type: functional
[4] = Solubility of the compound at pH 6.5; assay type: physicochemical; settings: buffer
[5] = system: Staphylococcus aureus; assay: Antibacterial activity against methicillin-sensitive Staphylococcus aureus ATCC 29213 after 20 to 24 hrs; assay type: functional
[6] = system: Staphylococcus aureus; assay: Bactericidal activity against […] Staphylococcus aureus clinical isolate USA300 assessed as log reduction in bacterial cell number at 4 times MIC after 24 hrs by time-kill curve analysis; assay type: functional, organism-based
[7] = system: Staphylococcus aureus; assay: Antibacterial activity against methicillin-sensitive Staphylococcus aureus ATCC 29213 after 20 to 24 hrs in presence of 50% heat inactivated bovine serum
[8] = system: Staphylococcus aureus; assay: Bactericidal activity against […] Staphylococcus aureus clinical isolate USA300 assessed as log reduction in bacterial cell number at 4 times MIC after 8 hrs by time-kill curve analysis; assay type: functional
[9] = Solubility of the compound at pH 2; assay type: physicochemical; settings: buffer
[10] = Intrinsic clearance in human liver microsomes assessed per mg of protein; assay type: ADME; settings: read-out: CLH
[11] = system: Staphylococcus aureus; assay: Bactericidal activity against methicillin-sensitive Staphylococcus aureus ATCC 29213 assessed as log reduction in bacterial cell number at 2 times MIC after 8 hrs by time-kill curve analysis; assay type: functional
[12] = system: Staphylococcus aureus; assay: Antibacterial activity against methicillin-sensitive Staphylococcus aureus ATCC 6538 after 20 to 24 hrs in presence of 50% heat inactivated bovine serum; assay type: functional
[13] = Toxicity in po dosed male rabbit; assay type: organism-based, Oryctolagus cuniculus; settings: in vivo
[14] = system: Enterococcus; assay: Antibacterial activity against vancomycin-resistant Enterococcus after 20 to 24 hrs; assay type: functional
[15] = system: Escherichia coli; assay: Antibacterial activity against Escherichia coli ATCC 25922 after 20 to 24 hrs; assay type: functional
[16] = Toxicity in sheep erythrocytes assessed as hemolysis after 30 mins; assay type: cell-based, Ovis aries; settings: erythrocyte, 0.5 h
[17] = system: Staphylococcus aureus; assay: Bactericidal activity against […] Staphylococcus aureus clinical isolate USA300 assessed as log reduction in bacterial cell number at 2 times MIC after 8 hrs by time-kill curve analysis; assay type: functional
[18] = system: Staphylococcus aureus; assay: Bactericidal activity against methicillin-sensitive Staphylococcus aureus ATCC 29213 assessed as log reduction in bacterial cell number at MIC after 8 hrs by time-kill curve analysis; assay type: functional
[19] = Lipophilicity, logD of the compound at pH 3; assay type: physicochemical; settings: buffer

**Q.** Which logD [1] does the source give for `N=C(N/N=C/c1ccc(Cl)cc1)N/N=C/c1ccc(Cl)cc1` [ROBENIDINE] here?
**A.** 4.5

**Q.** And the Activity [2]?
**A.** inactive

**Q.** And the MIC90 [3]?
**A.** 5.4 µM (≈ 1.8 µg/mL)

**Q.** And the solubility [4]?
**A.** < 1.6 µg/mL

**Q.** And the MIC90 [5]?
**A.** 5.4 µM (≈ 1.8 µg/mL)

**Q.** What about the Activity [6] of the same compound?
**A.** inactive

**Q.** And the MIC90 [7]?
**A.** > 250 µM

**Q.** What about the Activity [8] of the same compound?
**A.** >=4 log10CFU/ml

**Q.** What about the solubility [9] of the same compound?
**A.** 6.3 µg/mL (≈ 18.9 µM)

**Q.** What about the microsomal CLint [10] of the same compound?
**A.** < 7 µL/min/mg

**Q.** And the Activity [11]?
**A.** >=4 log10CFU/ml

**Q.** And the MIC90 [12]?
**A.** > 250 µM

**Q.** And the LD50 [13]?
**A.** 1500 mg/kg

**Q.** What about the MIC [14] of the same compound?
**A.** 4.7 µM (≈ 1.57 µg/mL)

**Q.** And the MIC [15]?
**A.** > 400 µM

**Q.** What about the Activity [16] of the same compound?
**A.** >= 173 uM

**Q.** What about the Activity [17] of the same compound?
**A.** >=4 log10CFU/ml

**Q.** What about the Activity [18] of the same compound?
**A.** >=4 log10CFU/ml

**Q.** And the logD [19]?
**A.** 3.7
